Legend:
[1] = tested on: C26 murine colon carcinoma; assay: Pharmacodynamics of doxorubicin liposomes in C26 tumor model; type: in vivo, nude mice
Protocol: For further studies pharmacodynamic experiments in a C26 murine colon carcinoma model were performed. For this purpose tumor cells were injected subcutaneously into nude mice. After tumors had reached a size of approximately 50-100 mm^3 tumor-bearing mice were treated with doxorubicin-loaded liposomes injecting a doxorubicin dose of 4 mg/kg body weight at days 1, 3 and 6.
In a first experiment AVE9-dox and AVE95-dox (see example 10) were compared to unencapsulated doxorubicin. In this experiment we observed reduced tumor growth and a prolonged survival time for animals treated with AVE95-dox compared to animals treated with AVE9-dox or free doxorubicin. […] The difference between free doxorubicin and AVE95-dox at day 12 was statistically significant (p = 0.05). This was also reflected by the mean survival time which was 20 days for AVE95-dox treated animals, 16 days for AVE9-dox treated animals, 14 days for doxorubicin-treated animals, and 12 days for untreated animals.
In a second experiment free doxorubicin was compared to AVE95-dox, when administered either at 4 or at 8 mg/kg body weight to C26-tumor-bearing mice. […] In contrast, tumor growth was further reduced using 8 mg/kg AVE95-dox compared to […] AVE95-dox.
In a third experiment AVE95-dox was compared to Doxil® for the treatment of C26 tumors applying a dose of 4 mg/kg.
In a final set of experiments, AVE95-dox liposomes were compared to a AVE95-based formulation containing varying sphingomyelin concentrations. Firstly, AVE95-dox was compared to the same formulation in which sphingomyelin was substituted by phosphatidylcholine (AVE95-0SM-dox). […] Secondly, AVE95-dox was compared to liposomes consisting of 50 mol% cholesterol, 30 mol% sphingomyelin and 20 mol% phosphatidylcholine. Thus, this formulation contained the same cholesterol concentration but approximately twice as much sphingomyelin as AVE95 liposomes.

[2] = Pharmacokinetics of doxorubicin in blood after i.v. injection (HPLC); type: in vivo; details: i.v. tail vein, nude mice, blood doxorubicin by HPLC
Protocol: AVE9-dox and AVE95-dox were injected i.v. into the tail veins of nude mice and blood concentration of doxorubicin was determined by HPLC at varying time points. In this experiment we included unencapsulated doxorubicin as well as doxorubicin encapsulated into pegylated "stealth liposomes" (Doxil®). Compared to AVE9-dox AVE95-dox caused a prolonged serum residence time of doxorubicin (50% value of 11 min for AVE9-dox versus 23 min for AVE95-dox). Unencapsulated dox was rapidly cleared from the circulation (50% value = < 3 min). In contrast, after injection of Doxil® more than 50% of initial doxorubicin was present in the blood after 6 hours (Fig. 4). […] Doxorubicin concentrations in the liver and spleen were increased 3-fold after applying AVE95-dox compared to free doxorubicin.

[3] = Pharmacokinetics and organ accumulation of mitoxantrone after i.v. injection (HPLC); type: in vivo; details: i.v. tail vein, nude mice, blood mitoxantrone by HPLC
Protocol: AVE95-MXR liposomes were injected i.v. into the tail veins of nude mice and blood concentration of mitoxantrone was determined by HPLC at varying time points. In this experiment we included unencapsulated mitoxantrone. AVE95-MXR caused a prolonged serum residence time of mitoxantrone (50% value = 110 min) compared to unencapsulated mitoxantrone which was rapidly cleared from circulation (50% value = < 3 min) (Fig. 8). […] Mitoxantrone concentrations in the liver and spleen were similar to free mitoxantrone.

[4] = tested on: C26 murine colon carcinoma; assay: Pharmacodynamics of mitoxantrone liposomes in C26 tumor model; type: in vivo, nude mice; details: mitoxantrone dose of 4 mg/kg at days 0, 2 and 5
Protocol: Efficacy of AVE95-MRX was analyzed in a C26 murine colon carcinoma model. For this purpose tumor cells were injected subcutaneously into nude mice. After tumors had reached a size of approximately 50-100 mm^3, tumor-bearing mice were treated with mitoxantrone-loaded liposomes injecting a mitoxantrone dose of […] or 4 mg/kg body weight at days 0, 2 and 5. Unencapsulated mitoxantrone was included in these experiments. […] However, at this dose tumor growth was further reduced for AVE95-encapsulated mitoxantrone compared to free mitoxantrone (Fig. 9). This improved efficacy compared to free mitoxantrone was also observed at a mitoxantrone concentration of […].

SMILES	tumor growth compared to untreated control animals ([1]; 4 mg/kg at days 1, 3 and 6, first experiment)	lethality ([1]; at 8 mg/ml (so in the source), C26-tumor-bearing mice)	mean survival time ([1]; doxorubicin 4 mg/kg body weight at days 1, 3 and 6, first experiment) [days]	tumor growth at 8 mg/kg compared to 4 mg/kg ([1]; second experiment, 4 or 8 mg/kg body weight)	50% value (serum residence time of doxorubicin) [2] [min]	50% value (serum residence time of mitoxantrone) [3] [min]	inhibition of tumor growth [4]
COc1cccc2c1C(=O)c1c(O)c3c(c(O)c1C2=O)C[C@@](O)(C(=O)CO)C[C@@H]3O[C@H]1C[C@H](N)[C@H](O)[C@H](C)O1 [doxorubicin]	reduced tumor growth compared to untreated control animals	increased lethality	14	No differences in tumor growth	< 3		
O=C1c2c(O)ccc(O)c2C(=O)c2c(NCCNCCO)ccc(NCCNCCO)c21 [mitoxantrone, Mitoxantrone]						< 3	strong inhibition of tumor growth

From patent publication EP1537858A1, “Drug delivery vehicles and uses thereof” (Vectron Therapeutics AG, priority 2003, dated 2005)
